Data on six molecules can be found in ChEMBL document CHEMBL3400147, “New septanoside and 20-hydroxyecdysone septanoside derivative from Atriplex portulacoides roots with preliminary biological activities” (Bioorg Med Chem Lett, 2015).

Series [1] addresses T1, Cholinesterase (Homo sapiens, UniProt P06276). The experiment in a line: Inhibition of BchE in human plasma incubated for 30 mins using butyrylthiocholine substrate at 37 degC by DTNB dye based spectrophotometry.
The test system of a further series is Enterococcus faecalis. As to the kind of experiment: Antimicrobial activity against Enterococcus faecalis ATCC 29212 incubated for 24 hrs by microtiter plate dilution method. Format: functional.
Another series concerns Pseudomonas aeruginosa. The experiment in a line: Antimicrobial activity against Pseudomonas aeruginosa ATCC 27853 incubated for 24 hrs by microtiter plate dilution method. Format: functional.
A short description of series [2]: Antioxidant activity assessed as ABTS radical scavenging activity incubated for 6 mins. Format: physicochemical.
A short description of series [3]: Antioxidant activity assessed as catalase activity by measuring hydrogen peroxide disappearance per mg protein measured for 1 min at 25 degC. Format: physicochemical.
The next series deals with Escherichia coli. The experiment in a line: Antimicrobial activity against Escherichia coli ATCC 25922 incubated for 24 hrs by microtiter plate dilution method. Format: functional.
Series [4] can be described thus: Antioxidant activity assessed as DPPH radical scavenging activity incubated for 30 mins by UV absorption spectrometry. Format: physicochemical. A general note: DPPH is a stable violet radical that fades when it is reduced.
Series [5] in a line: Antioxidant activity assessed as ferric-reducing antioxidant power after 20 mins at 50 degC by UV spectrophotometry. Format: physicochemical.
Another series has as its system Staphylococcus aureus. The experiment in a line: Antimicrobial activity against Staphylococcus aureus ATCC 25923 incubated for 24 hrs by microtiter plate dilution method. Format: functional.
The target in series [6] is T1, Cholinesterase. The experiment in a line: Inhibition of BchE in human plasma at 1 mg/ml incubated for 30 mins using butyrylthiocholine substrate at 37 degC by DTNB dye based spectrophotometry.

SMILES strings stand for the structures. In brackets after ≈: the same amount, converted by molar mass. Activity calls are given as the source filed them. The calls are words filed in the database; no cut-off is given here.

T1 sequence (P06276 whole entry): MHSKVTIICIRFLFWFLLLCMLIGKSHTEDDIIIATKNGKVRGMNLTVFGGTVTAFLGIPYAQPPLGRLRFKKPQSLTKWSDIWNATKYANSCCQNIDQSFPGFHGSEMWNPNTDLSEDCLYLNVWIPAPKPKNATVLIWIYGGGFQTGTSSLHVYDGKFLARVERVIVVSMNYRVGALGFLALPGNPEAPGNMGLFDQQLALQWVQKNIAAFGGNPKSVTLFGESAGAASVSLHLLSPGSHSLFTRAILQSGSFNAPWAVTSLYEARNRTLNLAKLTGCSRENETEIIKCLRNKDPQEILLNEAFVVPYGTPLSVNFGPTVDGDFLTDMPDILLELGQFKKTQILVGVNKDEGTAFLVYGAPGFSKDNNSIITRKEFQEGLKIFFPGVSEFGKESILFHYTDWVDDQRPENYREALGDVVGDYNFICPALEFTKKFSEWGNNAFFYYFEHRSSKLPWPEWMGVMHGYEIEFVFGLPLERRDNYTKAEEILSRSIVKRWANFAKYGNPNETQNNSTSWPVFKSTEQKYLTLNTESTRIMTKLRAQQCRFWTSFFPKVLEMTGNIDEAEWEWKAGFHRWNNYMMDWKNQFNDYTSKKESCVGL

One may read the IC50 as the concentration that gives 50% inhibition. A word on the MIC: it is the lowest concentration that inhibits growth of the organism. In the case of `CCCCOC1(O)COC[C@@H](O)[C@@H](O)[C@H]1O` (some centres not stated), the half-maximal inhibitory concentration (IC50) entry (at Cholinesterase [1]; in series [2]; in [4]; in series [5]) was “Not Active” in each case. For the same molecule, the MIC result with Enterococcus faecalis, with Pseudomonas aeruginosa, in the series on Escherichia coli and in the series on Staphylococcus aureus was “inactive” each time. In [3], the Activity entry is reported as “Not Active”.

As a reminder, the inhibition is the drop in the measured response relative to a control, in per cent. Low values mean a response near the control, high ones a response far below the control. Regarding `CC(C)(O)CC[C@@H](O)[C@](C)(O)[C@H]1CC[C@@]2(O)C3=CC(=O)[C@@H]4C[C@@H](O)[C@@H](O)C[C@]4(C)[C@H]3CC[C@]12C` [20-HYDROXYECDYSONE], the 50% inhibitory concentration (IC50) at Cholinesterase [1] (read-out: IC50 (converted)) is 1050 µM; in [2], 98.74 µg/mL (≈ 205 µM); in [4] it was 155.82 µg/mL (≈ 324 µM); in series [5], 262.45 µg/mL (≈ 546 µM). Further, the minimal inhibitory concentration (MIC) against Enterococcus faecalis (ATCC 29212, 24 h) came out at 125 µg/mL (≈ 260 µM); with Pseudomonas aeruginosa (ATCC 27853, 24 h), 62 µg/mL (≈ 129 µM); against Escherichia coli (ATCC 25922, 24 h), 125 µg/mL (≈ 260 µM); against Staphylococcus aureus (ATCC 25923, 24 h), 125 µg/mL (≈ 260 µM). On Cholinesterase [6], this molecule had an inhibition of 71.2%. The Activity in [3] is 112.35 µmol/min.

For `O=C1O[C@H]([C@@H](O)CO)C(O)=C1O` [ASCORBIC ACID], the Activity in series [3] is 757.575 µmol/min.

With `CN[C@H](CC(C)C)C(=O)N[C@H]1C(=O)N[C@@H](CC(N)=O)C(=O)N[C@H]2C(=O)N[C@H]3C(=O)N[C@H](C(=O)N[C@H](C(=O)O)c4cc(O)cc(O)c4-c4cc3ccc4O)[C@H](O)c3ccc(c(Cl)c3)Oc3cc2cc(c3O[C@@H]2O[C@H](CO)[C@@H](O)[C@H](O)[C@H]2O[C@H]2C[C@](C)(N)[C@H](O)[C@H](C)O2)Oc2ccc(cc2Cl)[C@H]1O` [VANCOMYCIN], the minimal inhibitory concentration (MIC) in the series on Enterococcus faecalis (ATCC 29212, 24 h) was 62 µg/mL (≈ 42.8 µM); in the series on Pseudomonas aeruginosa (ATCC 27853, 24 h), 1 µg/mL (≈ 0.69 µM); with Escherichia coli (ATCC 25922, 24 h), 1 µg/mL (≈ 0.69 µM); in the series with Staphylococcus aureus (ATCC 25923, 24 h) it was 3 µg/mL (≈ 2.07 µM).

Turning to `Cc1c(C)c2c(c(C)c1O)CCC(C)(C(=O)O)O2` (configuration not stated) [TROLOX], the concentration for half-maximal inhibition (IC50) in series [2] stood at 2.02 µg/mL (≈ 8.07 µM); in series [4], 14.56 µg/mL (≈ 58.2 µM); in series [5] it was 47.32 µg/mL (≈ 189 µM).

Consider `CO[C@]1(O[C@@H](CCC(C)(C)O)[C@](C)(O)[C@H]2CC[C@@]3(O)C4=CC(=O)[C@@H]5C[C@@H](O)[C@@H](O)C[C@]5(C)[C@H]4CC[C@]23C)COC[C@@H](O)[C@@H](O)[C@H]1O`, for which the IC50 on Cholinesterase [1] (read-out: IC50 (converted)) is 837 µM; in [2] it was 111.24 µg/mL (≈ 169 µM); in series [4] it was 180.26 µg/mL (≈ 274 µM); in series [5], 288.36 µg/mL (≈ 439 µM). Besides, the minimal inhibitory concentration (MIC) in the series on Enterococcus faecalis (ATCC 29212, 24 h) worked out at 125 µg/mL (≈ 190 µM); against Pseudomonas aeruginosa (ATCC 27853, 24 h), 125 µg/mL (≈ 190 µM); in the series with Escherichia coli (ATCC 25922, 24 h), 62 µg/mL (≈ 94.4 µM); in the series with Staphylococcus aureus (ATCC 25923, 24 h), 125 µg/mL (≈ 190 µM). At Cholinesterase [6], the inhibition came out at 68.3%. The Activity in [3] is 159.62 µmol/min.
